From patent US8377667B2, “Microorganisms for the production of 1,4-butanediol, 4-hydroxybutanal, 4-hydroxybutyryl-CoA, putrescine and related compounds, and methods related thereto” (Genomatica, Inc., priority 2009, dated 2013)

T1: BK (Clostridium acetobutylicum, UniProt Q45829)
T1 construct: made in house; host or cells: E. coli, crude cell extract (pZA33-0020-0021)
T1 sequence (Q45829 1-355): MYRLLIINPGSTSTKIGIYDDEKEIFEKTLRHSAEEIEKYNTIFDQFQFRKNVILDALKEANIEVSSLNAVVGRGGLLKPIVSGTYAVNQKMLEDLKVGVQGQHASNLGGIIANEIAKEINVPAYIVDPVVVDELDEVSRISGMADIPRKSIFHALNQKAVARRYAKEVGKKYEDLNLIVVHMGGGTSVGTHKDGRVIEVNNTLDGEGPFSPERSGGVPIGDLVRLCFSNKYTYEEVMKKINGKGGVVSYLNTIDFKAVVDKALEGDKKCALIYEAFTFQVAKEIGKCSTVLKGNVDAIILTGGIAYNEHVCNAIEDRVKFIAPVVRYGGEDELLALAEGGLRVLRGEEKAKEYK

B1: BK: Butyrate kinase from C. acetobutylicum (gene 0021), native ptb/bk operon expressed in pZA33; cell extract (protein, listed as Clostridium acetobutylicum)
chain: T1 sequence (Q45829 1-355)

target: T1, BK; test: Butyrate kinase (BK) enzyme activity, butyrate to butyryl-phosphate; format: biochemical, C. acetobutylicum; conditions: extracts from cells containing pZA33-0020-0021
Procedure: The enzyme activity of PTB is measured in the direction of butyryl-CoA to butyryl-phosphate as described in Cary et al. J. Bacteriol. 170:4613-4618 (1988). It provides inorganic phosphate for the conversion, and follows the increase in free CoA with the reagent 5,5′-dithiobis-(2-nitrobenzoic acid), or DTNB. DTNB rapidly reacts with thiol groups such as free CoA to release the yellow-colored 2-nitro-5-mercaptobenzoic acid (TNB), which absorbs at 412 nm with a molar extinction coefficient of 14,140 M cm^−1. The assay buffer contained 150 mM potassium phosphate at pH 7.4, 0.1 mM DTNB, and 0.2 mM butyryl-CoA, and the reaction was started by addition of 2 to 50 μL cell extract. The enzyme activity of BK is measured in the direction of butyrate to butyryl-phosphate formation at the expense of ATP. The procedure is similar to the assay for acetate kinase previously described Rose et al., J. Biol. Chem. 211:737-756 (1954). However we have found another acetate kinase enzyme assay protocol provided by Sigma to be more useful and sensitive. […] The reaction was started by adding 2 to 50 μL cell extract, and the reaction was monitored based on the decrease in absorbance at 340 nm indicating NADH oxidation. […]

Row | Molecule | specific activity of BK
1 | B1 | approximately 65 U/mg

system: aminotransferase from Leishmania mexicana; test: not given; conditions: activity considered 100% on tyrosine; cited from earlier work

Row | Molecule | activity (substrate specificity) [%]
2 | N[C@@H](Cc1c[nH]c2ccccc12)C(=O)O [tryptophan] | 85
3 | CSCC[C@H](N)C(=O)O [methionine] | 25
4 | N[C@@H](Cc1ccccc1)C(=O)O [phenylalanine] | 90
5 | CC(C)C[C@H](N)C(=O)O [leucine] | 25
6 | N[C@@H](Cc1ccc(O)cc1)C(=O)O [tyrosine] | 100
